Measured values as given in patent US9840478B2 (MERCK SHARP & DOHME CORP., priority 2013, dated 2017).

tested on: HIV-1 (H9IIIB strain); experiment: Cell-based HIV infection assay using a reporter (Cell-Based), MT4-GFP cells; settings: Human immunodeficiency virus 1, MT4-GFP cells infected with HIV-1 H9IIIB; 50% normal human serum; mean of at least two independent experiments; read-out: Cell-based IP
How it was run: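 IC50 from 4-parameter dose-response of % viral growth inhibition, using the 48 h/24 h infected-cell ratio scaled between DMSO and a protease/integrase/NNRTI triple-drug control. Assay used MT4 cells with HIV-LTR-GFP reporter, pre-infected 24 h with HIV-1 H9IIIB, in 50% normal human serum.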

Question: With O=C(C[C@@H](c1ccc(F)cc1)c1cc(F)cc(F)c1)Nc1cncc(F)c1CC[C@H]1CNCCN1S(=O)(=O)N1CCCC(F)C1 (stereo partly drawn) [Example 333, (3S)-3-(3,5-difluorophenyl)-N-[5-fluoro-4-(2-{(2S)-1-[(3-fluoropiperidin-1-yl)sulfonyl]piperazin-2-yl}ethyl)pyridin-3-yl]-3-(4-fluorophenyl)propanamide] as the compound, how does the IC50 read?
Answer: The IC50 was 0.064 µM.

Question: Which IC50 does the source give for CC(C)CC1CCCN1S(=O)(=O)N1CCNC[C@@H]1CCc1c(F)cncc1NC(=O)C[C@@H](c1ccc(F)cc1)c1cc(F)cc(F)c1 (stereo partly drawn) [Example 337, (3S)-3-(3,5-difluorophenyl)-N-(5-fluoro-4-{2-[(2S)-1-{[2-(2-methylpropyl)pyrrolidin-1-yl]sulfonyl}piperazin-2-yl]ethyl}pyridin-3-yl)-3-(4-fluorophenyl)propanamide] here?
Answer: Its IC50 is 0.13 µM.

Question: For O=C(C[C@@H](c1ccc(F)cc1)c1cc(F)cc(F)c1)Nc1cncc(F)c1CC[C@H]1CNCCN1S(=O)(=O)NCC(F)CCl (stereo partly drawn) [Example 339, (3S)-N-[4-(2-{(2S)-1-[(3-chloro-2-fluoropropyl)sulfamoyl]piperazin-2-yl}ethyl)-5-fluoropyridin-3-yl]-3-(3,5-difluorophenyl)-3-(4-fluorophenyl)propanamide], which IC50 is on record?
Answer: Its IC50 is 0.04 µM.

Question: For CCN(CC)S(=O)(=O)N1CCNC[C@@H]1CCc1c(F)cncc1NC(=O)C[C@@H](c1ccc(F)cc1)c1cc(F)cc(F)c1 [Example 340, (3S)-N-(4-{2-[(2S)-1-(diethylsulfamoyl)pipera-zin-2-yl]ethyl}-5-fluoropyridin-3-yl)-3-(3,5-difluorophenyl)-3-(4-fluorophenyl)propanamide], which IC50 is on record?
Answer: The IC50 was 0.21 µM.

Question: For O=C(C[C@@H](c1ccc(F)cc1)c1cc(F)cc(F)c1)Nc1cncc(F)c1CC[C@H]1CNCCN1C(=O)N1CCCCC1 [Example 341, (3S)-3-(3,5-difluorophenyl)-3-(4-fluorophenyl)-N-(5-fluoro-4-{2-[(2S)-1-(piperidin-1-ylcarbonyl)piperazin-2-yl]ethyl}pyridin-3-yl)propanamide], which IC50 is on record?
Answer: Its IC50 is 0.45 µM.

Question: O=C(C[C@@H](c1ccc(F)cc1)c1cc(F)cc(F)c1)Nc1cncc(F)c1CC[C@H]1CNCCN1C(=O)COc1ccccc1 [Example 343, (3S)-3-(3,5-difluorophenyl)-N-(5-fluoro-4-{2-[(2S)-1-(phenoxyacetyl)piperazin-2-yl]ethyl}pyridin-3-yl)-3-(4-fluorophenyl)propanamide] was tested. Which IC50 did it give?
Answer: The IC50 was 0.125 µM.

Question: Which IC50 does the source give for O=C(C[C@@H](c1ccc(F)cc1)c1cc(F)cc(F)c1)Nc1cncc(F)c1CC[C@H]1CNCCN1C(=O)c1ccc(OC(F)(F)F)cc1 [Example 344, (3S)-3-(3,5-difluorophenyl)-3-(4-fluorophenyl)-N-(5-fluoro-4-{2-[(2S)-1-{[4-(trifluoromethoxy)phenyl]carbonyl}piperazin-2-yl]ethyl}pyridin-3-yl)propanamide] here?
Answer: The IC50 was 1.8 µM.

Question: For O=C(C[C@@H](c1ccc(F)cc1)c1cc(F)cc(F)c1)Nc1cncc(F)c1CC[C@H]1CNCCN1C(=O)c1ccc2c(c1)OC(F)(F)O2 [Example 345, (3S)-N-[4-(2-{(2S)-1-[(2,2-difluoro-1,3-benzodioxol-5-yl)carbonyl]piperazin-2-yl}ethyl)-5-fluoropyridin-3-yl]-3-(3,5-difluorophenyl)-3-(4-fluorophenyl)propanamide], which IC50 is on record?
Answer: Its IC50 is 1.6 µM.

Question: How did the IC50 turn out when O=C(C[C@@H](c1ccc(F)cc1)c1cc(F)cc(F)c1)Nc1cncc(F)c1CC[C@H]1CNCCN1C(=O)c1cccc(OC(F)(F)F)c1 [Example 346, (3S)-3-(3,5-difluorophenyl)-3-(4-fluorophenyl)-N-(5-fluoro-4-{2-[(2S)-1-{[3-(trifluoromethoxy)phenyl]carbonyl}piperazin-2-yl]ethyl}pyridin-3-yl)propanamide] was run?
Answer: The IC50 was 0.86 µM.

Question: Which IC50 does the source give for CC(Oc1ccccc1)C(=O)N1CCNC[C@@H]1CCc1c(F)cncc1NC(=O)C[C@@H](c1ccc(F)cc1)c1cc(F)cc(F)c1 (stereo partly drawn) [Example 347, (3S)-3-(3,5-difluorophenyl)-N-(5-fluoro-4-{2-[(2S)-1-(2-phenoxypropanoyl)piper-azin-2-yl]ethyl}pyridin-3-yl)-3-(4-fluorophenyl)propanamide] here?
Answer: The IC50 was 0.057 µM.

Question: For O=C(C[C@@H](c1ccc(F)cc1)c1cc(F)cc(F)c1)Nc1cncc(F)c1CC[C@H]1CNCCN1C(=O)CCOc1ccccc1 [Example 348, (3S)-3-(3,5-difluorophenyl)-N-(5-fluoro-4-{2-[(2S)-1-(3-phenoxypropanoyl)piper-azin-2-yl]ethyl}pyridin-3-yl)-3-(4-fluorophenyl)propanamide], which IC50 is on record?
Answer: Its IC50 is 0.19 µM.

Question: With CC(C)(C)c1ccc(OCC(=O)N2CCNC[C@@H]2CCc2c(F)cncc2NC(=O)C[C@@H](c2ccc(F)cc2)c2cc(F)cc(F)c2)cc1 [Example 349, (3S)-N-[4-(2-{(2S)-1-[(4-tert-butylphenoxy)acetyl]pipe-razin-2-yl}ethyl)-5-fluoropyridin-3-yl]-3-(3,5-difluorophenyl)-3-(4-fluorophenyl)propanamide] as the compound, how does the IC50 read?
Answer: The IC50 was 1.5 µM.

Question: How did the IC50 turn out when COC(=O)N[C@H](C(=O)N[C@H]1CCC[C@@H]1CC[C@H]1CNCCN1S(=O)(=O)c1ccccc1)C(c1ccc(F)cc1)c1ccc(F)cc1 [Example 350, Methyl ((S)-1,1-bis(4-fluorophenyl)-3-oxo-3-(((1S,2R)-2-(2-((S)-1-(phenylsulfonyl)piperazin-2-yl)ethyl)cyclopentyl)amino)propan-2-yl)carbamate] was run?
Answer: Its IC50 is 0.012 µM.

Question: COC(=O)N[C@H](C(=O)N[C@@H]1CCC[C@H]1CC[C@H]1CNCCN1S(=O)(=O)c1ccccc1)C(c1ccc(F)cc1)c1ccc(F)cc1 [Example 351, Methyl ((S)-1,1-bis(4-fluorophenyl)-3-oxo-3-(((1R,2S)-2-(2-((S)-1-(phenylsulfonyl)piperazin-2-yl)ethyl)cyclopentyl)amino)propan-2-yl)carbamate] was tested. Which IC50 did it give?
Answer: Its IC50 is 0.36 µM.

Question: With COC(=O)N[C@H](C(=O)NC1CCCC1CC[C@H]1CNCCN1S(C)(=O)=O)C(c1ccc(F)cc1)c1ccc(F)cc1 (stereo partly drawn) [Example 352, 4-fluoro-beta-(4-fluorophenyl)-Nalpha-(methoxycarbonyl)-N-(2-{2-[(2S)-1-(methylsulfonyl)piperazin-2-yl]ethyl}cyclopentyl)-L-phenylalaninamide] as the compound, how does the IC50 read?
Answer: Its IC50 is 0.19 µM.

Question: With N[C@H](C(=O)N[C@@H]1CCCC[C@H]1CC[C@H]1CNCCN1S(=O)(=O)c1ccccc1)C(c1ccc(F)cc1)c1ccc(F)cc1 [Example 353, 4-fluoro-beta-(4-fluorophenyl)-N-[(1R,2S)-2-{2-[(2S)-1-(phenylsulfonyl)piperazin-2-yl]ethyl}cyclohexyl]-L-phenylalaninamide] as the compound, how does the IC50 read?
Answer: Its IC50 is 0.54 µM.

Question: COC(=O)N[C@H](C(=O)N[C@H]1CCCC[C@@H]1CC[C@H]1CNCCN1S(=O)(=O)c1ccccc1)C(c1ccc(F)cc1)c1ccc(F)cc1 [Example 354, methyl ((S)-1,1-bis(4-fluorophenyl)-3-oxo-3-(((1S,2R)-2-(2-((S)-1-(phenylsulfonyl)piperazin-2-yl)ethyl)cyclohexyl)amino)propan-2-yl)carbamate] was tested. Which IC50 did it give?
Answer: The IC50 was 0.022 µM.

Question: For COC(=O)N[C@H](C(=O)N[C@H]1CCCC[C@@H]1CC[C@H]1CNCCN1S(=O)(=O)c1ccccc1)[C@@H](c1ccc(Cl)cc1)C1CCOCC1 [Example 355, methyl ((1R,2S)-1-(4-chlorophenyl)-3-oxo-3-(((1S,2R)-2-(2-((S)-1-(phenylsulfonyl)piperazin-2-yl)ethyl)cyclohexyl)amino)-1-(tetrahydro-2H-pyran-4-yl)propan-2-yl)carbamate], which IC50 is on record?
Answer: The IC50 was 0.014 µM.

Question: COC(=O)N[C@H](C(=O)NC1CCCC1CC[C@H]1CNCCN1S(=O)(=O)c1ccccc1)C(c1ccc(Cl)cc1)C1CCOCC1 (stereo partly drawn) [Example 356, methyl ((1R,2S)-1-(4-chlorophenyl)-3-oxo-3-((2-(2-((S)-1-(phenylsulfonyl)piperazin-2-yl)ethyl)cyclopentyl)amino)-1-(tetrahydro-2H-pyran-4-yl)propan-2-yl)carbamate] was tested. Which IC50 did it give?
Answer: The IC50 was 0.028 µM.

Question: How did the IC50 turn out when COC(=O)NC(C(=O)NC1CC(O)CC1CC[C@H]1CNCCN1S(=O)(=O)c1ccccc1)C(c1ccc(F)cc1)c1ccc(F)cc1 (stereo partly drawn) [Example 357, Methyl ((2R)-1,1-bis(4-fluorophenyl)-3-((4-hydroxy-2-(2-((S)-1-(phenylsulfonyl)piperazin-2-yl)ethyl)cyclopentyl)amino)-3-oxopropan-2-yl)carbamate] was run?
Answer: The IC50 was 0.82 µM.

Question: How did the IC50 turn out when N[C@H](C(=O)NC1CC(F)(F)CC1CC[C@H]1CNCCN1S(=O)(=O)c1ccccc1)[C@H](c1ccc(Cl)cc1)C1CCOCC1 (stereo partly drawn) [Example 360, (betaS)-4-chloro-N-(4,4-difluoro-2-{2-[(2S)-1-(phenylsulfonyl)piperazin-2-yl]ethyl}cyclopentyl)-beta-(tetrahydro-2H-pyran-4-yl)-L-phenylalaninamide] was run?
Answer: Its IC50 is 0.61 µM.

Question: Which IC50 does the source give for N[C@H](C(=O)Nc1cccc(F)c1CC[C@H]1CNCC2(CC2)N1S(=O)(=O)c1ccccc1)C(c1ccc(F)cc1)c1ccc(F)cc1 [Example 366, (S)-2-amino-N-(3-fluoro-2-(2-((S)-4-(phenylsulfonyl)-4,7-diazaspiro[2.5]octan-5-yl)ethyl)phenyl)-3,3-bis(4-fluorophenyl)propanamide] here?
Answer: The IC50 was 0.013 µM.

Question: CS(=O)(=O)N1[C@@H](CCc2c(F)cccc2NC(=O)[C@@H](N)C(c2ccc(F)cc2)c2ccc(F)cc2)CNCC12CC2 [Example 367, (S)-2-amino-N-(3-fluoro-2-(2-((S)-4-(methylsulfonyl)-4,7-diazaspiro[2.5]octan-5-yl)ethyl)phenyl)-3,3-bis(4fluorophenyl)propanamide] was tested. Which IC50 did it give?
Answer: Its IC50 is 0.047 µM.

same assay, conditions: MT4-GFP cells infected with HIV-1 H9IIIB; 50% normal human serum; mean of at least two independent experiments; read-out: Cell-based IP

Question: How did the IC50 turn out when N[C@H](C(=O)NC1CC(F)(F)CC1CC[C@H]1CNCCN1S(=O)(=O)c1ccccc1)[C@H](c1ccc(Cl)cc1)C1CCOCC1 (stereo partly drawn) [Example 361, (betaS)-4-hcloro-N-(4,4-difluoro-2-{2-[(2S)-1-(phenylsulfonyl)piperazin-2-yl]ethyl}cyclopentyl)-beta-(tetrahydro-2H-pyran-4-yl)-L-phenylalaninamide] was run?
Answer: Its IC50 is 0.88 µM.
